The test system of this assay is anti-VCAp18 antibodies of EBV-positive sera. The assay can be described thus: Measurement of the binding affinity to the antibody (method of FRIGUET, ELISA inhibition by soluble VCAp18/SEQ ID No. 2). The arrangement: species or system human. To be noted: increasing concentrations of soluble peptide. The method, then:
The specificity of the binding of the positive sera to the different mixotopes in solid phase is evaluated by the absorption of the antibodies by the native antigen VCAp18/SEQ ID No. 2 in solution, using the method of B. FRIGUET et al. (J. Immunol. Methods, 1985, 77, 305-319).
This method is based on the measurement of the free antibody concentration by an indirect ELISA method when the antigen VCAp18/SEQ ID No. 2 and the antibodies are in equilibrium in solution.
The antigen VCAp18/SEQ ID No. 2, at different concentrations (10^−10 M to 2×10^−6 M), is first incubated in solution (PBS-T buffer+2% BSA) with an EBV-positive serum, at a constant concentration (1/50) until the equilibrium state is reached. […]
After washing with PBS-T buffer, the bound immunoglobulins are detected by addition of peroxidase-coupled goat antibodies anti-human IgG-A-Ms.
This method gives the displacement curves for the A/Ao bond relative to log(ao). A precise estimation of the mean affinity of the serum containing the anti-VCAp18 antibodies is given by the equation Ao/(Ao−A)=1/ν=1+Kd/ao, in which ao is the total soluble antigen concentration, A and Ao are the absorbance values at 492 nm with or without blocking antigen, respectively, and ν is the bound antibody fraction, if the different conditions set out in FRIGUET et al. are satisfied.

The results in this text go back to patent US6818219B1, “Reagent for detecting and monitoring viral infections” (Institut Pasteur de Lille, priority 1997, dated 2004).

For “CAVDTGSGGGGQPHDTAPRGARKKQ [VCAp18/SEQ ID No. 2]”, the “inhibition of the binding of the human sera to the 3 mixotopes in solid phase” value was “specifically and strongly inhibited”.
